Reference: patent publication US6290959A (New York University, dated 2001)

Key:
[1] = test system: type 1-fimbriated E. coli; experiment: In vitro bacterial adherence assay: binding of 35S-labelled E. coli to immobilized bovine urothelial plaques (asymmetric unit membranes); details: 2x10^5 cpm; for effect of sugars on bacterial binding to bovine asymmetrical unit membranes: E. coli SH48 (type 1 only), preincubated with sugar, 0.2 μg immobilized bovine AUM
Description: Purified asymmetric unit membranes were suspended in PBS and incubated in 96-well polystyrene microtiter plates at room temperature for 30 minutes, then at 4° C. for 16 hours. All subsequent steps were carried out at room temperature. After being washed three times with PBS for two hours, the immobilized asymmetric membrane units were incubated with 2% BSA in PBS for two hours, and ^35 S-labelled bacteria were incubated in 2% BSA and 0.1% NaN3 for two hours. The wells were then washed four times with PBS, and the bound bacteria were dissolved in 1% SDS for 30 minutes and quantitated by scintillation counting. All binding studies were performed in triplicate.
Purified bovine urothelial plaques, consisting of asymmetric unit membranes that cover 70-80% of the urothelial apical surface, were immobilized on microtiter wells (0.2 microgram per well). The unoccupied binding sites were blocked with 3% BSA in PBS. BSA was used to coat the control wells. The E. coli strains used were J96, which express type 1 fimbriae as well as P fimbriae carrying the G-1 and G-2 adhesins; SH48, which expresses type 1 fimbriae only; HU849, which expresses P fimbriae carrying G-1 adhesin; IA2, which expresses P fimbriae carrying G-adhesins; and nonfimbriated P678-54.
^35 [S]methionine-labelled bacteria were added to each well (2×10^5 cpm in 10^7 bacteria suspended in PBS). After incubation at 25° C. for two hours, the wells were washed with PBS and the radioactivities of the bound bacteria, dissolved in 1% SDS, were counted. Each value represents the means of triplicates bracketed by the standard deviation (±15%). It should be noted that only the type 1-fimbriated J96 and SH48 strains, but not the P-expressing HU849 and IA2 or the nonfimbriated P678-54, adhered to the asymmetric unit membranes.
In FIG. 1B, the relative contribution of type 1 and P fimbriae in the binding of J96 to asymmetric unit membranes is shown. ^35 S-labelled J96 (2×10^5 cpm) were incubated with immobilized asymmetric unit membranes in the absence or the presence of 2% D-mannose.
To test the effects of sugars on the binding of type-1 fimbriated E. coli to bovine urothelial plaques, 2×10^5 cpm of radiolabeled E. coli (SH48) were preincubated with D-mannose (Man), methyl-α-D-mannopyranoside(MMP), or D-galactose (Gal) before they were incubated with 0.2 μg of immobilized bovine asymmetrical unit membranes.

[2] = test system: type 1-fimbriated bacteria; experiment: Bacterial (gel) overlay assay: radiolabelled bacteria on SDS/PAGE-resolved uroplakins on nitrocellulose; format: binding, E. coli; details: bovine uroplakins on nitrocellulose, autoradiography
Description: Asymmetric unit membrane proteins were resolved by SDS/PAGE (17% acrylamide; acrylamide/bisacrylamide=10:1) and electrophoretically transferred to nitrocellulose. After a brief incubation in 3% BSA in PBS to block the unoccupied sites, the nitrocellulose sheet was incubated with ^35 [S]methionine-labelled bacteria in 2% BSA and 0.1% NaN3. After three washings in PBS, the nitrocellulose was air-dried and autoradiographed.
To determine which of the asymmetric membrane proteins are responsible for this binding, a gel overlay assay was performed. Uroplakins were resolved by SDS/PAGE (cf. FIGS. 5A and 5B), transferred to nitrocellulose, and incubated with radiolabelled bacteria. […] The two major bacterial binding proteins were identified as the two closely related uroplakin proteins, i.e., the 27 kDa-uroplakin Ia and the 28 kDa-uroplakin Ib, according to their sizes and immunoreactivities (FIG. 5B, lanes 1 and 2). […] To determine whether the carbohydrate moieties of uroplakin I proteins were responsible for the binding of the type 1 fimbriae, as one might expect from the inhibitory effects of mannose (cf. FIG. 4), the effects of deglycosylation were tested, results shown in FIGS. 5D and E. Endo H removed about […] of sugars from uroplakin I proteins (cf. FIG. 5D, lanes 2 and 5). […]

[3] = target: E. coli strain SH48, expressing type 1 fimbriae only (FimH adhesin) (E. coli, UniProt P08191); experiment: overlay of radiolabelled bacteria on SDS/PAGE-resolved uroplakins on nitrocellulose

Q: For O=C[C@@H](O)[C@@H](O)[C@H](O)[C@H](O)CO [D-mannose], which “effect of sugars on bacterial binding to bovine asymmetrical unit membranes” value (shortened to “effect of sugars on bacterial binding”) [1] is on record?
A: The value was “greatly inhibited”.

Q: And the “binding of J96 to asymmetric unit membranes in the presence of mannose” value ([1]; E. coli strain J96 (type 1 and P fimbriae), 2% D-mannose, immobilized bovine AUM)?
A: Its value is “completely blocked”.

Q: What about the “inhibition of binding of type 1-fimbriated bacteria to uroplakin protein bands” value [2] of the same molecule?
A: The value was “inhibited”.

Q: Which “effect of sugars on bacterial binding” value [1] does the source give for CO[C@H]1O[C@H](CO)[C@@H](O)[C@H](O)[C@@H]1O [methyl-α-D-mannopyranoside] here?
A: The value was “greatly inhibited”.

Q: Which “effect of sugars on bacterial binding” value [1] does the source give for O=C[C@H](O)[C@@H](O)[C@@H](O)[C@H](O)CO [D-galactose] here?
A: The value was “not”.

Q: What about the “inhibition of binding of type 1-fimbriated bacteria to uroplakin protein bands” value [2] of the same molecule?
A: Its value is “not”.

B1: bovine uroplakin II (mature) (other)
chain: ELVSVVDSGSGFTVTRLSAYQVTNLAPGTKYYISYLVTKGASTESSREIPMSTFPRRKAESIGLAMARTGGMVVITVLLSVAMFLLVLGLIIALALGARK
Q: Does B1 bind [3]?
A: Result: no binding
